The values that follow come from PubChem BioAssay (NCI).

Where “and” joins values, the source holds several entries; their conditions need not be identical. Equal entries are not always repeated.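 Assay format: 96-well plates, 48-hour exposure. Here, GI50 denotes the concentration required for 50% inhibition of growth. TGI denotes the concentration required for complete inhibition of growth.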

Test systems include EKVX NSCLC; SN12C renal; SNB-19 CNS; NCI-H460 lung; 786-0 renal; ACHN renal; HCT-116 colon; NCI-H23 lung; HOP-62 NSCLC; HCT-15 colon.
Holding throughout (test): NCI anticancer screen, dose series, 48 h

With `Nc1ccccc1C#C/C=C\C#CC#C/C=C\C#Cc1ccccc1N`, the GI50 was 7.84 µM in the experiment on EKVX NSCLC; 3.05 µM in the experiment on SN12C renal; 16.2 µM with SNB-19 CNS; 8.32 µM with NCI-H460 lung; 9.76 µM in the experiment on 786-0 renal; 5.38 µM with ACHN renal. Also, the GI50 with HCT-116 colon was 3.84 µM; with NCI-H23 lung, 5.17 µM; in the experiment with HOP-62 NSCLC it was 10.5 µM; in the experiment on HCT-15 colon it was 3.74 µM. Moreover, the TGI was determined as 28.4 µM in the experiment on EKVX NSCLC; 16.4 µM with SN12C renal; 64.8 µM in the experiment on SNB-19 CNS; 25.6 µM with NCI-H460 lung; 24.6 µM with 786-0 renal; 40.4 µM in the experiment with ACHN renal. The TGI turned out to be 15.9 µM in the experiment on HCT-116 colon, 23.3 µM with NCI-H23 lung, 28.1 µM in the experiment on HOP-62 NSCLC and 24.2 µM in the experiment on HCT-15 colon.
As to `CCOC(=O)Nc1nc2ccccc2[nH]1`, the GI50 in the experiment on EKVX NSCLC is over 24 µM; with SNB-19 CNS, 10.5 µM and 4.83 µM; in the experiment on NCI-H460 lung it was 4.27 µM and 3.6 µM; in the experiment on 786-0 renal, 7.37 µM; in the experiment with ACHN renal, 6.56 µM; in the experiment on HCT-116 colon, 5.34 µM and 4.52 µM. The GI50 with NCI-H23 lung is 8.17 µM and > 21.9 µM; in the experiment on HOP-62 NSCLC, 6.08 µM and > 22.9 µM; in the experiment with HCT-15 colon, 3.89 µM and 4.14 µM. Moreover, the TGI in the experiment on EKVX NSCLC, in the experiment with SN12C renal, with SNB-19 CNS, with NCI-H460 lung, with 786-0 renal and in the experiment on ACHN renal was over 100 µM throughout. For the same molecule, the TGI in the experiment on HCT-116 colon, in the experiment with NCI-H23 lung, in the experiment on HOP-62 NSCLC and in the experiment on HCT-15 colon was over 100 µM each time.
Regarding `C=CC(COC(=O)C(C)(C)OC(C)=O)c1ccc(OC(=O)C(C)C)c(OC)c1` (centres undefined), the TGI was 34.1 µM in the experiment with EKVX NSCLC; over 37 µM in the experiment with SN12C renal; 23.2 µM with SNB-19 CNS; 7.78 µM with NCI-H460 lung; over 24.9 µM in the experiment with 786-0 renal; 8.77 µM in the experiment on ACHN renal. In addition, the TGI was over 48.9 µM in the experiment on HCT-116 colon, 39.3 µM in the experiment with NCI-H23 lung, 23.5 µM with HOP-62 NSCLC and 4.88 µM with HCT-15 colon.
On to `CCCCC(C)/C=C/C(=O)C1=C(O)/C(=C/C(=O)O)OC1=O` (centres undefined), for which the TGI in the experiment on EKVX NSCLC, with SN12C renal, with SNB-19 CNS, with NCI-H460 lung, with 786-0 renal and in the experiment on ACHN renal was over 100 µM throughout. Further, the TGI in the experiment with HCT-116 colon, with NCI-H23 lung, in the experiment on HOP-62 NSCLC and in the experiment with HCT-15 colon was over 100 µM throughout.
Take `CC(C)c1ccc(C2NC(=S)NC3=C2c2ccccc2C3=O)cc1` (centres undefined): the TGI was over 58.6 µM with EKVX NSCLC; over 61.4 µM in the experiment with SN12C renal; over 55.2 µM in the experiment on SNB-19 CNS; over 67.3 µM with NCI-H460 lung; over 60 µM in the experiment with 786-0 renal; over 55.9 µM with ACHN renal. The TGI is over 58.4 µM in the experiment on HCT-116 colon, over 59.2 µM in the experiment with NCI-H23 lung, over 57.1 µM in the experiment with HOP-62 NSCLC and over 51.9 µM with HCT-15 colon.
Take `Cc1ccc(Nc2cc(Cl)c([N+](=O)[O-])cc2[N+](=O)[O-])cc1`: the GI50 in the experiment on EKVX NSCLC is 14.7 µM; in the experiment on SN12C renal, 4.1 µM; with SNB-19 CNS, 6.33 µM; in the experiment with NCI-H460 lung, 2.35 µM; with 786-0 renal, 3.97 µM; with ACHN renal it was 4.73 µM. Also, the GI50 was 2.59 µM with HCT-116 colon, 3.66 µM in the experiment on NCI-H23 lung, 5.82 µM in the experiment on HOP-62 NSCLC and 4.12 µM in the experiment on HCT-15 colon. Also, the TGI in the experiment on EKVX NSCLC stood at 29.7 µM; with SN12C renal, 14.6 µM; in the experiment with SNB-19 CNS, 17.7 µM; in the experiment with NCI-H460 lung, 5.45 µM; with 786-0 renal, 14 µM; with ACHN renal it was 16.2 µM. Further, the TGI in the experiment on HCT-116 colon came to 6.94 µM; in the experiment with NCI-H23 lung it was 14.2 µM; in the experiment on HOP-62 NSCLC it was 16.2 µM; with HCT-15 colon, 16.5 µM.
Regarding `O=C1/C(=C/c2ccc3c(c2)OCCO3)CCC/C1=C\c1ccc2c(c1)OCCO2`, the TGI was over 100 µM with EKVX NSCLC; 54.9 µM with SN12C renal; over 100 µM in the experiment with SNB-19 CNS; 65.6 µM in the experiment on NCI-H460 lung; over 100 µM with 786-0 renal; over 100 µM in the experiment with ACHN renal. For the same molecule, the TGI is 7.85 µM in the experiment with HCT-116 colon, 92.1 µM with HOP-62 NSCLC and over 100 µM in the experiment on HCT-15 colon.
`O=C1CC[C@H](N2Cc3c(OCc4ccc(CN5CCOCC5)cc4)cccc3C2=O)C(=O)N1`: the GI50 in the experiment with EKVX NSCLC, in the experiment on SN12C renal, in the experiment with SNB-19 CNS, in the experiment with NCI-H460 lung, in the experiment with 786-0 renal and with ACHN renal was over 100 µM each time. Moreover, the GI50 in the experiment with HCT-116 colon, with HOP-62 NSCLC and in the experiment on HCT-15 colon was over 100 µM in each case. The TGI in the experiment on EKVX NSCLC, in the experiment on SN12C renal, in the experiment on SNB-19 CNS, in the experiment with NCI-H460 lung, with 786-0 renal and in the experiment on ACHN renal was over 100 µM throughout. In addition, the TGI in the experiment with HCT-116 colon, with HOP-62 NSCLC and in the experiment on HCT-15 colon was over 100 µM in each case.
As to `CC1=CC(C)(c2c[nH]c3ccccc23)CC(C)(C)c2c1[nH]c1ccccc21` (centres undefined), the TGI in the experiment with EKVX NSCLC stood at 39.8 µM; in the experiment with SN12C renal, 28.5 µM; with SNB-19 CNS it was 74.7 µM; with NCI-H460 lung it was 34.5 µM; in the experiment on 786-0 renal, 27.1 µM; in the experiment on ACHN renal, 44.5 µM. Moreover, the results for the TGI with HCT-116 colon, in the experiment on NCI-H23 lung and in the experiment with HOP-62 NSCLC were 26.7 µM, 28.5 µM and 79.7 µM, respectively.
Consider `O=c1[nH]c2cc([N+](=O)[O-])ccc2nc1/C(=N/Nc1ccccc1)C(O)c1ccco1` (centres undefined), for which the TGI with EKVX NSCLC, in the experiment with SN12C renal, in the experiment with SNB-19 CNS, with NCI-H460 lung, in the experiment with 786-0 renal and with ACHN renal was over 100 µM throughout. In addition, the TGI with HCT-116 colon, with HOP-62 NSCLC and in the experiment on HCT-15 colon was over 100 µM in each case.
